# Values of other authors, collected in patent EP0527942B1, “COLONIC DRUG DELIVERY SYSTEM” (Perio Products Limited, priority 1990, dated 1991).
# Tested on: morphine-dependent rats
# Details: for time to diarrhea, withdrawal behavior and tail skin temperature response: oral administration
Compound,"time to diarrhea, withdrawal behavior and tail skin temperature response [min]",time to diarrhea (direct colonic administration) [min],activity when administered subcutaneously (subcutaneous administration)
C=CCN1CC[C@]23c4c5ccc(O)c4O[C@H]2C(=O)CC[C@@]3(O)[C@H]1C5 [naloxone],≤ 15,,
C=C1CC[C@@]2(O)[C@H]3Cc4ccc(O)c5c4[C@@]2(CCN3CC2CC2)[C@H]1O5 [nalmefene],≤ 15,,
nalmefene glucuronide,,5 to 8,inactive
